Data: patent US12172986B2, “Splicing modulator antibody-drug conjugates and methods of use” (EISAI R&D MANAGEMENT CO., LTD., priority 2018, dated 2024)

Legend:
[1] = test system: FBXW5 (mature mRNA transcript); experiment: In vivo PD RT-qPCR in NCI-N87 tumors, FBXW5; design: species or system mouse; conditions: 10 mg/kg IV single dose
Method: (§1) Single cell suspension of 5 million cells per 0.1 mL (50% ATCC-modification-RPMI-1640-medium, Cat. No. A10491-01 (Thermo-Fisher Scientific); and 50% Corning Matrigel, Cat No. 356254 (VWR Scientific)) was injected subcutaneously on the right lateral flank with a syringe with a 25Ga needle. Mice were randomized on day 0 at a mean tumor volume of 180-183 mm^3, n=8 per group for efficacy and n=4 per group for pharmacodynamics (PD). On day 1, test articles were administered (10 mg/kg) at a volume of 5 mL/kg intravenously every 7 days for 2 cycles for efficacy; a single course of treatment was used for PD assessment. Animals in the PD cohorts were euthanized at 24, 48, 72, and/or 96 hours post-dosing of a single dose, depending on the test article.
(§2) RNA was purified from tumor samples using MagMAX-96 for Microarrays kit and MagMAX Express-96 Deep Well Magnetic Particle Processor (ThermoFisher Scientific). Tumor samples (size 50-100 mg) were collected in RNAlater buffer and kept at −80° C. until RNA isolation. […]
(§3) Quantitative PCR from cDNA was performed using TaqMan Gene Expression Master Mix (ThermoFisher Scientific) with transcript probes targeting FBXW5 or TAOK1 junctions duplexed with RPLPO RNA VIC-PL (ThermoFisher Scientific) and quantified using the ΔΔCt method.
(§4) RT-qPCR of FBXW5 (mature mRNA transcript) and TAOK1 (neojunction transcript) were monitored. […]

[2] = test system: TAOK1 (neojunction transcript); experiment: In vivo PD RT-qPCR in NCI-N87 tumors, TAOK1; design: species or system mouse; conditions: 10 mg/kg IV single dose
Method: as §1, §2, §3, §4

CC[C@H](O)[C@@H](C)C1OC1C[C@@](C)(O)/C=C/C=C(\C)[C@H]1OC(=O)C[C@H](O)CC[C@@](C)(OC)[C@@H](OC(=O)N2CCN(CCN3C(=O)C=CC3=O)CC2)/C=C/[C@@H]1C (stereo in doubt) [ADL14-D1, (2S,3S,6S,7R,10R,E)-10-hydroxy-2-((R,2E,4E)-6-hydroxy-7-((2S,3S)-3-((2R,3S)-3-hydroxypentan-2-yl)oxiran-2-yl)-6-methylhepta-2,4-dien-2-yl)-7-methoxy-3,7-dimethyl-12-oxooxacyclododec-4-en-6-yl 4-(2-(2,5-dioxo-2,5-dihydro-1 H-pyrrol-1-yl)ethyl)piperazine-1-carboxylate]
FBXW5 mature mRNA transcript in tumors [1]: did not exhibit statistically significant changes | TAOK1 neojunction transcript in tumors [2]: did not exhibit statistically significant changes
